# According to patent US8268809B2, “Kinase inhibitors for preventing or treating pathogen infection and method of use thereof” (priority 2006, dated 2012):
# Entries after “also recorded” stand apart in the source; their conditions may differ.
# Tests used:
# vaccinia virus [1] = format: cell-based
# vaccinia virus [2] = format: cell-based; remark: listed apart in the source
# [3] = system: gamma-herpes variant that expresses GFP under a CMV promoter (GHV-Bac-GFP); test: Herpes virus assay: GHV-Bac-GFP infection of 3T3 monolayers, cytopathic effect and GFP spread; format: cell-based, gamma-herpes virus; settings: for Herpes phenotype group / HERPES: 3T3 cells, GHV-Bac-GFP; for Herpes phenotype group: 10 μM, after 7 days; for HERPES: compound 10 μM, 7 days
# Description: All herpes viruses share the property of establishing life-long infection in their host. […] To determine whether tyrosine kinases participate in gamma-herpes virus infections, confluent monolayers of 3T3 cells were exposed and plated in optical 96 well dishes to the library of compounds of the present invention described herein for 1 hour. The cells were then infected with a gamma-herpes variant that expresses GFP under a CMV promoter (GHV-Bac-GFP), and replaced the compounds of the present invention at final concentration of 10 μM.
# vaccinia virus [4] = settings: background statement, Reeves et al. 2005; cited from earlier work
structure (smiles),measurement,setting,value
Cc1ccc(NC(=O)c2ccc(CN3CCN(Cc4ccc(F)cc4)CC3)cc2)cc1Nc1nccc(-c2cccnc2)n1 [STI-F],Actin protein tails,vaccinia virus [1],few actin tails
same,Class category of infected monolayers in plaque assay,vaccinia virus [2],Class III
same,VACCINIA PLAQUE ASSAY 2,vaccinia virus [2],NO PLAQUES
same,VACCINIA Plaque Assay,vaccinia virus [2],PINPOINT PLAQUES
O=C(c1ccccc1)c1ccc(-c2ccc3c(-c4ccc(F)cc4)n[nH]c3n2)cc1 [APcK-36],Herpes phenotype group,[3],(iii)
same,HERPES,[3],DE- LAYED CPE
Cc1ccc(NC(=O)c2ccc(CN3CCN(C)CC3)cc2)cc1Nc1nccc(-c2cncc(-c3ccncc3)c2)n1 [StiAF3-iAR],Herpes phenotype group,[3],(ii)
same,HERPES,[3],ENTRY OR EGRESS INHIB- ITOR
CC(=O)Nc1cccc(-c2ccc3c(-c4ccc(Br)c(F)c4)n[nH]c3n2)c1 [APcK-43],Class category of infected monolayers in plaque assay,vaccinia virus [2],Class III
same,Effects in Vaccinia assays,vaccinia virus [2],had effects
same,VACCINIA PLAQUE ASSAY 2,vaccinia virus [2],NO PLAQUES
same,VACCINIA Plaque Assay,vaccinia virus [2],NO PLAQUES
same,Effects in Herpes assay,[3],had effects
same,HERPES,[3],DE- LAYED CPE
CCOC(=O)c1ccc(-c2ccc3c(-c4ccc(F)cc4)n[nH]c3n2)cc1 [APcK-53],Herpes phenotype group,[3],(iii)
same,HERPES,[3],DE- LAYED CPE
Brc1cnc2c(Nc3ccc(N4CCOCC4)cc3)nccn12 [LG2-77],Herpes phenotype group,[3],(iii)
same,HERPES,[3],DE- LAYED CPE
Nc1cccc(-c2ccc3nnc(-c4ccco4)n3n2)c1 [LG2-71],Class category of infected monolayers in plaque assay,vaccinia virus [2],Class III
same,Effects in Vaccinia assays,vaccinia virus [2],had effects
same,"Plaque phenotype due to drug treatment (FIGS. 1, 2, 4)",vaccinia virus [2],small plaques with comets
same,VACCINIA PLAQUE ASSAY 2,vaccinia virus [2],PINPOINTS
same,VACCINIA Plaque Assay,vaccinia virus [2],"SMALL PLAQUES, WITH COMETS"
same,Effects in Herpes assay,[3],had effects
same,Herpes phenotype group,[3],(ii)
same,HERPES,[3],ENTRY OR EGRESS INHIB- ITOR
CC(=O)Nc1ccc(-c2ccc3c(-c4ccc(Br)cc4F)n[nH]c3n2)cc1 [APcK-21],Herpes phenotype group,[3],(iii)
same,HERPES,[3],DE- LAYED CPE
CCOC(=O)c1ccc(-c2ccc3c(-c4ccc(Br)cc4F)n[nH]c3n2)cc1 [APcK-50],Herpes phenotype group,[3],(iii)
same,HERPES,[3],DE- LAYED CPE
Cc1ccc(NC(=O)c2ccc(CN3CCOCC3)cc2)cc1Nc1nccc(-c2cccnc2)n1 [CGP51148 WBZ-4],Herpes phenotype group,[3],(iii)
same,HERPES,[3],DE- LAYED CPE
Brc1cnc2c(Nc3ccccc3)nccn12 [LG2-55],Effects in Vaccinia assays,vaccinia virus [2],had effects
same,VACCINIA Plaque Assay,vaccinia virus [2],PINPOINT PLAQUES
same,Effects in Herpes assay,[3],had effects
same,Herpes phenotype group,[3],(iii)
same,HERPES,[3],DE- LAYED CPE
COc1ccccc1Nc1cc(-c2ccc([N+](=O)[O-])cc2)ncn1 [Eph2_wbz 203],Actin protein tails,vaccinia virus [1],wild-type actin protein tails
same,Class category of infected monolayers in plaque assay,vaccinia virus [2],Class III
same,"Plaque phenotype due to drug treatment (FIGS. 1, 2, 4)",vaccinia virus [2],small plaques with comets
same,VACCINIA PLAQUE ASSAY 2,vaccinia virus [2],SMALL PLAQUES
same,VACCINIA Plaque Assay,vaccinia virus [2],"SMALL PLAQUES, STILL SEE COMETS"
Cc1ccc(NC(=O)c2ccc(CN3CCN(C)CC3)cc2)cc1Nc1nccc(-c2cncc(-c3ccncc3)c2)n1 [WBZ-6],HERPES,[3],DE- LAYED CPE
CC(=O)Nc1ccc(-c2ccc3c(-c4ccc(Cl)c(Cl)c4)n[nH]c3n2)cc1 [APcK-25],Herpes phenotype group,[3],(iii)
same,HERPES,[3],DE- LAYED CPE
"Cc1ccc(NC(=O)c2ccc(CN3CCN(C)CC3)cc2)cc1Nc1nccc(-c2cccnc2)n1 [CGP-2, reference compound]",Herpes phenotype group,[3],(ii)
same,HERPES,[3],ENTRY OR EGRESS INHIB- ITOR
same,Plaque phenotype of known Abl-/Src-family kinase inhibitors,vaccinia virus [4],somewhat reduced plaque size and loss of comets
CC(=O)Nc1cccc(-c2ccc3c(-c4ccc(F)cc4)n[nH]c3n2)c1 [APcK-103],Class category of infected monolayers in plaque assay,vaccinia virus [2],Class III
same,Effects in Vaccinia assays,vaccinia virus [2],had effects
same,VACCINIA PLAQUE ASSAY 2,vaccinia virus [2],NO PLAQUES
same,VACCINIA Plaque Assay,vaccinia virus [2],NO PLAQUES
same,Effects in Herpes assay,[3],had effects
same,Herpes phenotype group,[3],(iii)
same,HERPES,[3],DE- LAYED CPE
CC(=O)Nc1cccc(-c2ccc3c(-c4ccc(Cl)c(Cl)c4)n[nH]c3n2)c1 [APcK-42],Herpes phenotype group,[3],(iii)
same,HERPES,[3],DE- LAYED CPE
COc1ccccc1NS(=O)(=O)c1cccc(Nc2cc(-c3ccc(Cl)cc3)ncn2)c1 [Eph2_wbz 115],HERPES,[3],DE- LAYED CPE
CCOC(=O)c1ccc(-c2ccc3c(-c4ccc(C)c(F)c4)n[nH]c3n2)cc1 [APcK-51],Herpes phenotype group,[3],(iii)
same,HERPES,[3],DE- LAYED CPE
O=C(NCCO)c1cccc(-c2cnc3c(NCc4cccs4)nccn23)c1 [LG2-98],Class category of infected monolayers in plaque assay,vaccinia virus [2],Class III
same,VACCINIA PLAQUE ASSAY 2,vaccinia virus [2],PINPOINTS
same,VACCINIA Plaque Assay,vaccinia virus [2],"SMALL PLAQUES, WITH TAILS"
COc1ccccc1NS(=O)(=O)c1cccc(Nc2cc(-c3ccc(O)cc3)ncn2)c1 [Eph2_wbz 102],Class category of infected monolayers in plaque assay,vaccinia virus [2],Class III
same,VACCINIA PLAQUE ASSAY 2,vaccinia virus [2],no plaques
same,VACCINIA Plaque Assay,vaccinia virus [2],NO PLAQUES
CC(=O)Nc1ccc(-c2ccc3c(-c4ccc(Cl)cc4Cl)n[nH]c3n2)cc1 [APcK-26],Class category of infected monolayers in plaque assay,vaccinia virus [2],Class III
same,"Plaque phenotype due to drug treatment (FIGS. 1, 2, 4)",vaccinia virus [2],pinpoint plaque formations; also recorded: pinpoint plaques
same,VACCINIA PLAQUE ASSAY 2,vaccinia virus [2],SMALL PLAQUES
same,VACCINIA Plaque Assay,vaccinia virus [2],PINPOINT PLAQUES
O=C(Nc1cccc(-c2ccc3nnc(-c4cccs4)n3n2)c1)c1cccc([N+](=O)[O-])c1 [YYB32],Class category of infected monolayers in plaque assay,vaccinia virus [2],Class III
same,VACCINIA PLAQUE ASSAY 2,vaccinia virus [2],SMALL PLAQUES
same,VACCINIA Plaque Assay,vaccinia virus [2],SMALLER PLAQUES
CC(=O)c1cccc(-c2cnc3c(Nc4ccc(N5CCOCC5)cc4)nccn23)c1 [LG2-81],Herpes phenotype group,[3],(iii)
same,HERPES,[3],DE- LAYED CPE
COc1ccccc1NS(=O)(=O)c1cccc(Nc2cc(-c3ccc([N+](=O)[O-])cc3)ncn2)c1 [Eph2_wbz 103],Class category of infected monolayers in plaque assay,vaccinia virus [2],Class III
same,VACCINIA PLAQUE ASSAY 2,vaccinia virus [2],PINPOINT
same,VACCINIA Plaque Assay,vaccinia virus [2],NO PLAQUES
O=C(Nc1cccc(-c2ccc3nnc(-c4ccco4)n3n2)c1)Sc1ccccc1 [LG2-79],Class category of infected monolayers in plaque assay,vaccinia virus [2],Class II
same,VACCINIA PLAQUE ASSAY 2,vaccinia virus [2],SMALL PLAQUES
same,VACCINIA Plaque Assay,vaccinia virus [2],"SMALLER PLAQUES, COMETS?"
